Source: patent US20260234161A1, “RIFABUTIN ANALOGS FOR THE TREATMENT OF BACTERIAL DISEASES” (BIOVERSYS AG, priority 2023, published 2026)
Values after ≈ are worked out from the molar mass of the structure shown. Like-named read-outs stand apart in the source and are kept apart here.

Key:
Type in all cases: cell-based
[1] = test system: M. abscessus (ATCC 19977); assay: MIC by broth microdilution, M. abscessus in Middlebrook 7H9 broth + ADC; conditions: Mycobacteroides abscessus
Experimental: (§1) MIC values were determined by broth microdilution method according to the CLSI guidelines with the following exceptions: MIC against A. baumannii was performed in RPMI medium supplemented with 10% FCS and MIC against M. abscessus was performed in Middlebrook 7H9 broth supplemented with Middlebrook ADC growth supplement (10%; see column “M. abscessus 7H9”). MIC forM abscessus was determined a second time in standard cation adjusted Mueller Hinton broth without growth supplement (see colum “M. abscessus MH”). All other MIC were performed in standard cation adjusted Mueller Hinton broth, supplemented with Middlebrook ADC growth supplement (5%) for the slow growing mycobacteria (M. xenopi, M. kansasii and M. avium).
(§2) The following procedure applies to all species tested, except forM xenopi. From a fresh culture plate (from overnight to several days depending on the bacteria), cells were resuspended in 0.9% (w/v) saline solution and bacterial inoculum was prepared in the respective testing medium with 5×10^5 CFU/mL. For M. xenopi, the inoculum was prepared from a fresh liquid culture (7H9+ADC). The appropriate volumes of a 10 mg/mL compound solution were directly dispensed in the 96-well assay plate using a digital dispenser to create two-fold dilution series from 32 to 0.002 μg/mL final concentration for A. baumannii and S. aureus; from 16 to 0.016 μg/mL for M. abscessus and M. avium; and from 1 to 6×10^−5 μg/mL for M. kansasii and M. xenopi. 100 μL of bacterial suspension was finally added to the compounds. Plates were covered and incubated without shaking at 35° C. for 20 hours for A. baumanii and S. aureus; at 30° C. for 4 days for M. abscessus; and at 37° C. for 7 days (at least) for M. kansasii (covered with aluminum foil to avoid light exposure), M. avium and M. xenopi. Every experiment contained an antibiotic as quality control. MIC was determined visually as the lowest concentration of a compound that prevents visible growth of the bacteria.
(§3) The in vitro activity of compounds described herein was determined against S. aureus (UAMS-1625 strain), A. baumannii (HUMC1 strain), M. abscessus (ATCC 19977), M. kansasii (ATCC 12478), M. avium (ATCC 25291), and M. xenopi (ATCC 19250).

[2] = test system: A. baumannii (HUMC1 strain); assay: MIC by broth microdilution, A. baumannii (RPMI + 10% FCS); conditions: Acinetobacter baumannii, read-out: MIC A. baumannii
Experimental: as §1, §2, §3

[3] = test system: S. aureus (UAMS-1625 strain); assay: MIC by broth microdilution, S. aureus; conditions: Staphylococcus aureus, 20 h, read-out: MIC S. aureus
Experimental: as §1, §2, §3

[4] = test system: M. abscessus (ATCC 19977); assay: MIC by broth microdilution, M. abscessus in cation adjusted Mueller Hinton broth; conditions: Mycobacteroides abscessus
Experimental: as §1, §2, §3

[5] = test system: M. kansasii (ATCC 12478); assay: MIC by broth microdilution, M. kansasii; conditions: Mycobacterium kansasii, ATCC12478, 168 h, cation adjusted Mueller Hinton broth + ADC (5%), 37° C., 7 days (at least)
Experimental: as §1, §2, §3

[6] = test system: M. avium (ATCC 25291); assay: MIC by broth microdilution, M. avium; conditions: Mycobacterium avium, ATCC25291, 168 h, cation adjusted Mueller Hinton broth + ADC (5%), 37° C., 7 days (at least)
Experimental: as §1, §2, §3

[7] = test system: M. xenopi (ATCC 19250); assay: MIC by broth microdilution, M. xenopi; conditions: Mycobacterium xenopi, ATCC19250, 168 h, cation adjusted Mueller Hinton broth + ADC (5%), 37° C., 7 days (at least)
Experimental: as §1, §2, §3

[8] = ATCC19977, 96 h, ATCC 19977, Middlebrook 7H9 broth + ADC growth supplement (10%), 30° C., 4 days, read-out: MIC M. abscessus 7H9
[9] = HUMC1 strain, RPMI medium + 10% FCS, 35° C., 20 hours
[10] = ATCC19977, 96 h, ATCC 19977, cation adjusted Mueller Hinton broth without growth supplement, 30° C., 4 days, read-out: MIC M. abscessus MH

Row | Structure (SMILES) | MIC [1, 8] [µg/mL] | MIC [2, 9] [µg/mL] | MIC [3] [µg/mL] | MIC [4, 10] [µg/mL] | MIC ([1]; ATCC19977, 96 h, read-out: MIC M. abscessus 7H9) [µg/mL] | MIC ([2]; 20 h) [µg/mL] | MIC ([4]; ATCC19977, 96 h, read-out: MIC M. abscessus MH) [µg/mL] | MIC [5] [µg/mL] | MIC [6] [µg/mL] | MIC [7] [µg/mL] | MIC ([1]; ATCC19977, 7H9 broth, read-out: MIC value against M. abscessus in 7H9 broth) [µg/mL] | MIC ([4]; ATCC19977, Mueller Hinton broth, read-out: MIC value against M. abscessus in Mueller Hinton broth) [µg/mL]
1 | CO[C@H]1/C=C/O[C@@]2(C)Oc3c(C)c(O)c4c(c3C2=O)C2=NC3(CCN(CC(C)C)CC3)NC2=C(NC(=O)/C(C)=C\C=C\[C@H](C)[C@H](O)[C@@H](C)[C@@H](O)[C@@H](C)[C@H](OC(=O)N2CCN(C)CC2)[C@@H]1C)C4=O [Compound 6] | 1 | 0.06 | 0.06 (≈ 0.0644 µM) | 4 (≈ 4.3 µM) |  |  |  |  |  |  |  | 
2 | CO[C@H]1/C=C/O[C@@]2(C)Oc3c(C)c(O)c4c(c3C2=O)C2=NC3(CCN(CC(C)C)CC3)NC2=C(NC(=O)/C(C)=C\C=C\[C@H](C)[C@H](O)[C@@H](C)[C@@H](O)[C@@H](C)[C@H](OC(=O)N2CCN(C3CCN(C)CC3)CC2)[C@@H]1C)C4=O [Compound 11] | 0.5 | ≤ 0.002 | 0.125 (≈ 0.123 µM) | 4 (≈ 3.94 µM) |  |  |  |  |  |  |  | 
3 | CO[C@H]1/C=C/O[C@@]2(C)Oc3c(C)c(O)c4c(c3C2=O)C2=NC3(CCN(CC(C)C)CC3)NC2=C(NC(=O)/C(C)=C\C=C\[C@H](C)[C@H](O)[C@@H](C)[C@@H](O)[C@@H](C)[C@H](OC(=O)N2CCN(CCN3CCCCC3)CC2)[C@@H]1C)C4=O [Compound 12] | 0.5 | ≤ 0.002 | 0.125 (≈ 0.122 µM) | 1 (≈ 0.972 µM) |  |  |  |  |  |  |  | 
4 | CO[C@H]1/C=C/O[C@@]2(C)Oc3c(C)c(O)c4c(c3C2=O)C2=NC3(CCN(CC(C)C)CC3)NC2=C(NC(=O)/C(C)=C\C=C\[C@H](C)[C@H](O)[C@@H](C)[C@@H](O)[C@@H](C)[C@H](OC(=O)N2CCN(CCN3CCOCC3)CC2)[C@@H]1C)C4=O [Compound 13] | 0.5 | ≤ 0.002 | 0.06 (≈ 0.0582 µM) | 0.5 (≈ 0.485 µM) |  |  |  |  |  |  |  | 
5 | CO[C@H]1/C=C/O[C@@]2(C)Oc3c(C)c(O)c4c(c3C2=O)C2=NC3(CCN(CC(C)C)CC3)NC2=C(NC(=O)/C(C)=C\C=C\[C@H](C)[C@H](O)[C@@H](C)[C@@H](O)[C@@H](C)[C@H](OC(=O)N2CCCN(c3ccccn3)CC2)[C@@H]1C)C4=O [Compound 15] | 0.5 | 0.008 | 0.06 (≈ 0.0595 µM) | 1 (≈ 0.992 µM) |  |  |  |  |  |  |  | 
6 | CO[C@H]1/C=C/O[C@@]2(C)Oc3c(C)c(O)c4c(c3C2=O)C2=NC3(CCN(CC(C)C)CC3)NC2=C(NC(=O)/C(C)=C\C=C\[C@H](C)[C@H](O)[C@@H](C)[C@@H](O)[C@@H](C)[C@H](OC(=O)N2CCCN(c3ccc(F)cc3)CC2)[C@@H]1C)C4=O [Compound 16] | 1 | 0.03 | 0.25 (≈ 0.244 µM) | 2 (≈ 1.95 µM) |  |  |  |  |  |  |  | 
7 | CO[C@H]1/C=C/O[C@@]2(C)Oc3c(C)c(O)c4c(c3C2=O)C2=NC3(CCN(CC(C)C)CC3)NC2=C(NC(=O)/C(C)=C\C=C\[C@H](C)[C@H](O)[C@@H](C)[C@@H](O)[C@@H](C)[C@H](OC(=O)N2CCN(Cc3ccccc3)CC2)[C@@H]1C)C4=O [Compound 17] |  |  | 0.25 (≈ 0.248 µM) |  | 0.125 | 0.125 | 1 (≈ 0.993 µM) |  |  |  |  | 
8 | CO[C@H]1/C=C/O[C@@]2(C)Oc3c(C)c(O)c4c(c3C2=O)C2=NC3(CCN(CC(C)C)CC3)NC2=C(NC(=O)/C(C)=C\C=C\[C@H](C)[C@H](O)[C@@H](C)[C@@H](O)[C@@H](C)[C@H](OC(=O)N2CCC3(CCN(C)CC3)CC2)[C@@H]1C)C4=O [Compound 21] |  | ≤ 0.016 | 0.06 (≈ 0.06 µM) | 2 (≈ 2 µM) |  |  |  | 0.125 | 0.5 | 0.25 |  | 
9 | CCCCN1CCC(NC(=O)O[C@H]2[C@H](C)[C@H](O)[C@H](C)[C@@H](O)[C@@H](C)/C=C/C=C(/C)C(=O)NC3=C4NC5(CCN(CC(C)C)CC5)N=C4c4c(c(O)c(C)c5c4C(=O)[C@@](C)(O/C=C/[C@H](OC)[C@H]2C)O5)C3=O)CC1 [Compound 30] |  | ≤ 0.016 | 0.06 (≈ 0.0608 µM) | 0.5 (≈ 0.506 µM) |  |  |  | 0.016 | 0.125 | 0.06 |  | 
10 | CCCCN1CCN(C(=O)O[C@H]2[C@H](C)[C@H](O)[C@H](C)[C@@H](O)[C@@H](C)/C=C/C=C(/C)C(=O)NC3=C4NC5(CCN(CC(C)C)CC5)N=C4c4c(c(O)c(C)c5c4C(=O)[C@@](C)(O/C=C/[C@H](OC)[C@H]2C)O5)C3=O)CC1 [Compound 50] |  | 0.03 | 0.125 (≈ 0.128 µM) | 0.25 (≈ 0.257 µM) |  |  |  | 0.008 | 0.125 | 0.008 |  | 
11 | CO[C@H]1/C=C/O[C@@]2(C)Oc3c(C)c(O)c4c(c3C2=O)C2=NC3(CCN(CC(C)C)CC3)NC2=C(NC(=O)/C(C)=C\C=C\[C@H](C)[C@H](O)[C@@H](C)[C@@H](O)[C@@H](C)[C@H](OC(=O)N2CCN(CC3CC3)CC2)[C@@H]1C)C4=O [Compound 56] |  | ≤ 0.016 | 0.125 (≈ 0.129 µM) | 0.25 (≈ 0.257 µM) |  |  |  | 0.004 | 0.06 | 0.008 |  | 
12 | CO[C@H]1/C=C/O[C@@]2(C)Oc3c(C)c(O)c4c(c3C2=O)C2=NC3(CCN(CC(C)C)CC3)NC2=C(NC(=O)/C(C)=C\C=C\[C@H](C)[C@H](O)[C@@H](C)[C@@H](O)[C@@H](C)[C@H](OC(=O)N2CCC(NC(C)C)CC2)[C@@H]1C)C4=O [Compound 63] |  | ≤ 0.016 | 0.06 (≈ 0.0617 µM) | 2 (≈ 2.06 µM) |  |  |  | 0.125 | 0.5 | 0.25 |  | 
13 | CO[C@H]1/C=C/O[C@@]2(C)Oc3c(C)c(O)c4c(c3C2=O)C2=NC3(CCN(CC(C)C)CC3)NC2=C(NC(=O)/C(C)=C\C=C\[C@H](C)[C@H](O)[C@@H](C)[C@@H](O)[C@@H](C)[C@H](OC(=O)N2C[C@H]3CN(CC5CCCCC5)C[C@H]3C2)[C@@H]1C)C4=O [Compound 67] |  | 0.06 | 1 (≈ 0.962 µM) | 0.125 (≈ 0.12 µM) |  |  |  | 0.003 | 0.016 | 0.004 |  | 
14 | CO[C@H]1/C=C/O[C@@]2(C)Oc3c(C)c(O)c4c(c3C2=O)C2=NC3(CCN(CC(C)C)CC3)NC2=C(NC(=O)/C(C)=C\C=C\[C@H](C)[C@H](O)[C@@H](C)[C@@H](O)[C@@H](C)[C@H](OC(=O)N2CCC3(CCN(CC5CCCCC5)CC3)CC2)[C@@H]1C)C4=O [Compound 72] |  | 0.06 | 0.25 (≈ 0.231 µM) | 0.25 (≈ 0.231 µM) |  |  |  | 0.0004 | 0.03 | 0.008 |  | 
15 | CO[C@H]1/C=C/O[C@@]2(C)Oc3c(C)c(O)c4c(c3C2=O)C2=NC3(CCN(CC(C)C)CC3)NC2=C(NC(=O)/C(C)=C\C=C\[C@H](C)[C@H](O)[C@@H](C)[C@@H](O)[C@@H](C)[C@H](OC(C)=O)[C@@H]1C)C4=O [Rifabutin, rifabutin] | 8 | ≤ 0.002 | 0.016 (≈ 0.0189 µM) | 16 (≈ 18.9 µM) |  |  |  |  |  |  | 8 | 16 (≈ 18.9 µM)
